Legend:
Assay type in all cases: cell-based, human
LILRB2 = assay: siRNA dose response, LILRB2 mRNA knockdown, Dual-Glo Luciferase Assay; details: Hepa1-6 + reporter plasmid, 24 hr
Protocol: (§1) Dose response curves for siRNAs were generated in vitro using a variety of cell lines according to Table 4.
(§2) Briefly, cells were seeded in 96-well plates and reverse transfected with siRNA, Lipofectamine® 2000 (0.5 uL/well; ThermoFisher), and, in some cases, a reporter plasmid (50 ng/well). The reporter plasmid (psiCHECK™-2, Promega) encoded both firefly luciferase and the gene of interest fused to renilla luciferase; silencing of the gene of interest results in proportional silencing of renilla luciferase but leaves firefly luciferase unaffected as an internal control.
(§3) After 24 hr incubation at 37° C., mRNA knockdown was measured using an endpoint assay. For targets without a reporter plasmid, a branched DNA (bDNA) assay was performed according to the manufacturer's instructions (QuantiGene® Singleplex Gene Expression Assay, ThermoFisher) to measure both the target gene and GAPDH (housekeeping gene) mRNA. Data are plotted as siRNA concentration (nM) vs. remaining mRNA (ratio of target gene to GAPDH, normalized to mock siRNA-transfected cells). For targets with a reporter plasmid, a Dual-Glo® Luciferase Assay was performed according to the manufacturer's instructions (Promega) to measure firefly and renilla luciferase expression. Data are plotted as siRNA concentration (nM) vs. remaining mRNA (ratio of renilla to firefly luminescence, normalized to mock siRNA-transfected cells).
(§4) For all dose response curves, a 4-parameter logistic model was applied to determine the IC50 of each siRNA sequence (Table 5 and FIG. 2). Data shown in Table 5 and FIG. 2 represent the mean of quadruplicates, +/−standard deviation.

CD207 = assay: siRNA dose response, CD207 mRNA knockdown, Dual-Glo Luciferase Assay; details: Hepal-6 + reporter plasmid, 24 hr
Protocol: as §1, §2, §3, §4

CLEC7A = assay: siRNA dose response, CLEC7A mRNA knockdown, Dual-Glo Luciferase Assay; details: Hepa1-6 + reporter plasmid, 24 hr
Protocol: as §1, §2, §3, §4

SPI1 = assay: siRNA dose response, SPI1 mRNA knockdown, bDNA Assay; details: THP-1, 24 hr
Protocol: as §1, §2, §3, §4

Substance | IC50 (LILRB2) [pM] | IC50 (CD207) [pM] | other results
XD-10590: siRNA targeting LILRB2 (sense 5'-caGcAuCuuGGAuuAcAcsa-3'; antisense 5'-dTGUGuAAUCcAAGAUGCUGusu-3'; RNA with 2'-O-methyl and phosphorothioate modifications, case key not given here, as printed in the source, key not given here) | 68 | – | –
XD-09241: siRNA targeting CD207 (sense 5'-gaAAAcAcccAcAguccGudTsdT-3'; antisense 5'-ACGGACUGUGGGUGUUUUCdTsdT-3'; as printed in the source, key not given here) | – | 203 | –
XD-10567: siRNA targeting CLEC7A (sense 5'-gccuAGAAucuuGuAuAAudTsdT-3'; antisense 5'-AUuAuAcAAGAUUCuAGGCdTsdT-3'; as printed in the source, key not given here) | – | – | IC50 (CLEC7A): 23 pM
XD-10598: siRNA targeting LILRB2 (sense 5'-ccAcucCGucuAAgAucasa-3'; antisense 5'-dTUGAUCUuAGACGGAGUGGusu-3'; as printed in the source, key not given here) | 109 | – | –
XD-10566: siRNA targeting CLEC7A (sense 5'-ugccAuAucucuAauAGAAdTsdT-3'; antisense 5'-UUCuAUuAGAGAuAUGGcAdTsdT-3'; RNA with 2'-O-methyl and phosphorothioate modifications, case key not given here, as printed in the source, key not given here) | – | – | IC50 (CLEC7A): 6 pM
XD-09246: siRNA targeting CD207 (sense 5'-aaAuAcAAAGAuccGGGcAdTsdT-3'; antisense 5'-UGCCCGGAUCUUUGuAUUUdTsdT-3'; as printed in the source, key not given here) | – | 25 | –
XD-09243: siRNA targeting CD207 (sense 5'-guccGuGcuGcAuuAAucudTsdT-3'; antisense 5'-AGAUuAAUGcAGcACGGACdTsdT-3'; as printed in the source, key not given here) | – | 198 | –
XD-10569: siRNA targeting CLEC7A (sense 5'-gcucucAuAGGAAaGuuuudTsdT-3'; antisense 5'-AAAACUUUCCuAUGAGAGCdTsdT-3'; as printed in the source, key not given here) | – | – | IC50 (CLEC7A): 16 pM
XD-10565: siRNA targeting CLEC7A (sense 5'-ccAuAAGcGAAucuuAAuudTsdT-3'; antisense 5'-AAUuAAGAUUCGCUuAUGGdTsdT-3'; RNA with 2'-O-methyl and phosphorothioate modifications, case key not given here, as printed in the source, key not given here) | – | – | IC50 (CLEC7A): < 4 pM
XD-10593: siRNA targeting LILRB2 (sense 5'-cuAuGGUuAuGAcuuGAasa-3'; antisense 5'-dTUUcAAGUcAuAACcAuAGusu-3'; RNA with 2'-O-methyl and phosphorothioate modifications, case key not given here, as printed in the source, key not given here) | 136 | – | –
XD-10599: siRNA targeting LILRB2 (sense 5'-cacuccGucuAAGaucAasa-3'; antisense 5'-dTUUGAUCUuAGACGGAGUGusu-3'; RNA with 2'-O-methyl and phosphorothioate modifications, case key not given here, as printed in the source, key not given here) | 127 | – | –
XD-09242: siRNA targeting CD207 (sense 5'-caGuccGuGcuGcauuAAudTsdT-3'; antisense 5'-AUuAAUGcAGcACGGACUGdTsdT-3'; as printed in the source, key not given here) | – | 9 | –
XD-09245: siRNA targeting CD207 (sense 5'-gcGuucAGAuccAgAuGGudTsdT-3'; antisense 5'-ACcAUCUGGAUCUGAACGCdTsdT-3'; as printed in the source, key not given here) | – | 20 | –
XD-09788: siRNA targeting SPI1 (sense 5'-acAAGuAAAGuuAuucucAdTsdT-3'; antisense 5'-UGAGAAuAACUUuACUUGUdTsdT-3'; as printed in the source, key not given here) | – | – | IC50 (SPI1): 1320 pM
XD-09249: siRNA targeting CD207 (sense 5'-uauAGuGccGAGcaGuucudTsdT-3'; antisense 5'-AGAACUGCUCGGcACuAuAdTsdT-3'; RNA with 2'-O-methyl and phosphorothioate modifications, case key not given here, as printed in the source, key not given here) | – | 153 | –
XD-09785: siRNA targeting SPI1 (sense GUCUCAAGUCCGUAUGUAATT; antisense UUACAUACGGACUUGAGACTT; 2'-O-methyl and phosphorothioate modified, lower-case key not given here) | – | – | IC50 (SPI1): 479 pM
XD-09240: siRNA targeting CD207 (sense 5'-guGAGcAcucAGGauGAcudTsdT-3'; antisense 5'-AGUcAUCCUGAGUGCUcACdTsdT-3'; as printed in the source, key not given here) | – | 678 | –
XD-10591: siRNA targeting LILRB2 (sense 5'-ggAuAcGAccAGAgcuugsa-3'; antisense 5'-dTCAAGCUCUGGUCGuAUccusu-3'; RNA with 2'-O-methyl and phosphorothioate modifications, case key not given here, as printed in the source, key not given here) | 73 | – | –
XD-09248: siRNA targeting CD207 (sense 5'-uauucuAcAGGuGguuucudTsdT-3'; antisense 5'-AGAAACcACCUGuAGAAuAdTsdT-3'; as printed in the source, key not given here) | – | < 5 | –
XD-10594: siRNA targeting LILRB2 (sense 5'-gguuAuGAcuuGAccucusa-3'; antisense 5'-dTAGAGUUcAAGUcAuAACCusu-3'; RNA with 2'-O-methyl and phosphorothioate modifications, case key not given here, as printed in the source, key not given here) | 89 | – | –
XD-10592: siRNA targeting LILRB2 (sense 5'-gcGAuAUGGcuGucAGuasa-3'; antisense 5'-dTUACUGAcAGCcAUAUCGCusu-3'; RNA with 2'-O-methyl and phosphorothioate modifications, case key not given here, as printed in the source, key not given here) | 459 | – | –
XD-10597: siRNA targeting LILRB2 (sense 5'-cccAcuCcGucuAaGAucsa-3'; antisense 5'-dTGAUCUuAGACGGAGUGGGusu-3'; RNA with 2'-O-methyl and phosphorothioate modifications, case key not given here, as printed in the source, key not given here) | 59 | – | –
XD-09787: siRNA targeting SPI1 (sense CCGUAUGUAAAUCAGAUCUTT; antisense AGAUCUGAUUUACAUACGGTT; 2'-O-methyl and phosphorothioate modified, lower-case key not given here) | – | – | IC50 (SPI1): 75 pM
